Assay results published in article PMC11576293, “New series of 4,6-diaryl pyrimidines: facile synthesis and antiproliferative activity as dual EGFR/VEGFR-2 inhibitors” (Frontiers in Chemistry, 2024).

Legend:
EKVX = assay: NCI-60 single-dose screen; assay type: cell-based; settings: Homo sapiens, single dose 10 µM, '-' = no inhibition, read-out: % Growth Inhibition
Procedure: (§1) The National Cancer Institute’s Developmental Therapeutic Program (www.dtp.nci.nih.gov) has tested compounds 9–29 (except compounds 21 and 22) against 60 cancer cell lines from nine types (leukemia, lung, colon, CNS, melanoma, ovarian, renal, prostate, and breast cancer) at a single dose (10 μM) ([El-Sherief et al., 2018]). […] The most sensitive cells included leukemia (SR, K-562, and MOLT-4), lung (NCI-H522, […], and EKVX), breast (MCF-7 and T-47D), colon (HCT-15 and HT-29), and ovarian (NCI/ADR-RES).
(§2) The National Cancer Institute’s Developmental Therapeutic Program (www.dtp.nci.nih.gov) evaluated compounds 9–29 (excluding 21 and 22) against 60 cancer cell lines from nine categories (leukemia, lung, colon, CNS, melanoma, ovarian, renal, prostate, and breast cancer) at a single dose (10 μM) ([El-Sherief et al., 2018]). See Supplementary Material A1 for more details.

RPMI-8226 = assay: NCI-60 single-dose screen; assay type: cell-based; settings: Homo sapiens, single dose 10 µM, '-' = no inhibition, read-out: % Growth Inhibition
Procedure: as §1, §2

ACHN 1 = assay: NCI-60 single-dose screen; assay type: cell-based; settings: Homo sapiens, single dose 10 µM, '-' = no inhibition, read-out: % Growth Inhibition
Procedure: as §1, §2

K-562 = assay: NCI-60 single-dose screen; assay type: cell-based; settings: Homo sapiens, K562, single dose 10 µM, '-' = no inhibition, read-out: % Growth Inhibition
Procedure: as §1, §2

OVCAR-8 = assay: NCI-60 single-dose screen; assay type: cell-based; settings: Homo sapiens, single dose 10 µM, '-' = no inhibition, read-out: % Growth Inhibition
Procedure: as §1, §2

OVCAR-3 = assay: NCI-60 single-dose screen; assay type: cell-based; settings: Homo sapiens, single dose 10 µM, '-' = no inhibition, read-out: % Growth Inhibition
Procedure: as §1, §2

MOLT-4 = assay: NCI-60 single-dose screen; assay type: cell-based; settings: Homo sapiens, single dose 10 µM, '-' = no inhibition, read-out: % Growth Inhibition
Procedure: as §1, §2

HCC-2998 = assay: NCI-60 single-dose screen; assay type: cell-based; settings: Homo sapiens, single dose 10 µM, '-' = no inhibition, read-out: % Growth Inhibition
Procedure: as §1, §2

HT29 = assay: NCI-60 single-dose screen; assay type: cell-based; settings: Homo sapiens, HT-29, single dose 10 µM, '-' = no inhibition, read-out: % Growth Inhibition
Procedure: as §1, §2

SK-MEL-2 = assay: NCI-60 single-dose screen; assay type: cell-based; settings: Homo sapiens, single dose 10 µM, '-' = no inhibition, read-out: % Growth Inhibition
Procedure: as §1, §2

BT-549 = assay: NCI-60 single-dose screen; assay type: cell-based; settings: Homo sapiens, single dose 10 µM, '-' = no inhibition, read-out: % Growth Inhibition
Procedure: as §1, §2

SF-539 = assay: NCI-60 single-dose screen; assay type: cell-based; settings: Homo sapiens, single dose 10 µM, '-' = no inhibition, read-out: % Growth Inhibition
Procedure: as §1, §2

UACC-62 = assay: NCI-60 single-dose screen; assay type: cell-based; settings: Homo sapiens, single dose 10 µM, '-' = no inhibition, read-out: % Growth Inhibition
Procedure: as §1, §2

IGROV1 = assay: NCI-60 single-dose screen; assay type: cell-based; settings: Homo sapiens, IGROV-1, single dose 10 µM, '-' = no inhibition, read-out: % Growth Inhibition
Procedure: as §1, §2

SR = assay: NCI-60 single-dose screen; assay type: cell-based; settings: Homo sapiens, single dose 10 µM, '-' = no inhibition, read-out: % Growth Inhibition
Procedure: as §1, §2

KM12 = assay: NCI-60 single-dose screen; assay type: cell-based; settings: Homo sapiens, single dose 10 µM, '-' = no inhibition, read-out: % Growth Inhibition
Procedure: as §1, §2

MDA-MB-435 = assay: NCI-60 single-dose screen; assay type: cell-based; settings: Homo sapiens, single dose 10 µM, '-' = no inhibition, read-out: % Growth Inhibition
Procedure: as §1, §2

NCI-H460 = assay: NCI-60 single-dose screen; assay type: cell-based; settings: Homo sapiens, single dose 10 µM, '-' = no inhibition, read-out: % Growth Inhibition
Procedure: as §1, §2

NCI-H23 = assay: NCI-60 single-dose screen; assay type: cell-based; settings: Homo sapiens, single dose 10 µM, '-' = no inhibition, read-out: % Growth Inhibition
Procedure: as §1, §2

SF-268 = assay: NCI-60 single-dose screen; assay type: cell-based; settings: Homo sapiens, single dose 10 µM, '-' = no inhibition, read-out: % Growth Inhibition
Procedure: as §1, §2

NCI-H522 = assay: NCI-60 single-dose screen; assay type: cell-based; settings: Homo sapiens, single dose 10 µM, '-' = no inhibition, read-out: % Growth Inhibition
Procedure: as §1, §2

RXF 393 = assay: NCI-60 single-dose screen; assay type: cell-based; settings: Homo sapiens, single dose 10 µM, '-' = no inhibition, read-out: % Growth Inhibition
Procedure: as §1, §2

A498 = assay: NCI-60 single-dose screen; assay type: cell-based; settings: Homo sapiens, single dose 10 µM, '-' = no inhibition, read-out: % Growth Inhibition
Procedure: as §1, §2

NCI/ADR-RES = assay: NCI-60 single-dose screen; assay type: cell-based; settings: Homo sapiens, single dose 10 µM, '-' = no inhibition, read-out: % Growth Inhibition
Procedure: as §1, §2

MDA-MB-468 = assay: NCI-60 single-dose screen; assay type: cell-based; settings: Homo sapiens, single dose 10 µM, '-' = no inhibition, read-out: % Growth Inhibition
Procedure: as §1, §2

NCI-H322M = assay: NCI-60 single-dose screen; assay type: cell-based; settings: Homo sapiens, single dose 10 µM, '-' = no inhibition, read-out: % Growth Inhibition
Procedure: as §1, §2

UACC-257 = assay: NCI-60 single-dose screen; assay type: cell-based; settings: Homo sapiens, single dose 10 µM, '-' = no inhibition, read-out: % Growth Inhibition
Procedure: as §1, §2

DU-145 = assay: NCI-60 single-dose screen; assay type: cell-based; settings: Homo sapiens, single dose 10 µM, '-' = no inhibition, read-out: % Growth Inhibition
Procedure: as §1, §2

PC-3 = assay: NCI-60 single-dose screen; assay type: cell-based; settings: Homo sapiens, single dose 10 µM, '-' = no inhibition, read-out: % Growth Inhibition
Procedure: as §1, §2

TK-10 = assay: NCI-60 single-dose screen; assay type: cell-based; settings: Homo sapiens, single dose 10 µM, '-' = no inhibition, read-out: % Growth Inhibition
Procedure: as §1, §2

SN12C = assay: NCI-60 single-dose screen; assay type: cell-based; settings: Homo sapiens, single dose 10 µM, '-' = no inhibition, read-out: % Growth Inhibition
Procedure: as §1, §2

LOX IMVI = assay: NCI-60 single-dose screen; assay type: cell-based; settings: Homo sapiens, single dose 10 µM, '-' = no inhibition, read-out: % Growth Inhibition
Procedure: as §1, §2

M14 = assay: NCI-60 single-dose screen; assay type: cell-based; settings: Homo sapiens, single dose 10 µM, '-' = no inhibition, read-out: % Growth Inhibition
Procedure: as §1, §2

HL-60(TB) = assay: NCI-60 single-dose screen; assay type: cell-based; settings: Homo sapiens, single dose 10 µM, '-' = no inhibition, read-out: % Growth Inhibition
Procedure: as §1, §2

SW-620 = assay: NCI-60 single-dose screen; assay type: cell-based; settings: Homo sapiens, single dose 10 µM, '-' = no inhibition, read-out: % Growth Inhibition
Procedure: as §1, §2

SF-295 = assay: NCI-60 single-dose screen; assay type: cell-based; settings: Homo sapiens, single dose 10 µM, '-' = no inhibition, read-out: % Growth Inhibition
Procedure: as §1, §2

SNB-19 = assay: NCI-60 single-dose screen; assay type: cell-based; settings: Homo sapiens, single dose 10 µM, '-' = no inhibition, read-out: % Growth Inhibition
Procedure: as §1, §2

HCT-15 = assay: NCI-60 single-dose screen; assay type: cell-based; settings: Homo sapiens, single dose 10 µM, '-' = no inhibition, read-out: % Growth Inhibition
Procedure: as §1, §2

CAKI-1 = assay: NCI-60 single-dose screen; assay type: cell-based; settings: Homo sapiens, single dose 10 µM, '-' = no inhibition, read-out: % Growth Inhibition
Procedure: as §1, §2

SK-OV-3 = assay: NCI-60 single-dose screen; assay type: cell-based; settings: Homo sapiens, single dose 10 µM, '-' = no inhibition, read-out: % Growth Inhibition
Procedure: as §1, §2

CCRF-CEM = assay: NCI-60 single-dose screen; assay type: cell-based; settings: Homo sapiens, single dose 10 µM, '-' = no inhibition, read-out: % Growth Inhibition
Procedure: as §1, §2

MCF7 = assay: NCI-60 single-dose screen; assay type: cell-based; settings: Homo sapiens, single dose 10 µM, '-' = no inhibition, read-out: % Growth Inhibition
Procedure: as §1, §2

SK-MEL-28 = assay: NCI-60 single-dose screen; assay type: cell-based; settings: Homo sapiens, single dose 10 µM, '-' = no inhibition, read-out: % Growth Inhibition
Procedure: as §1, §2

MALME-3M = assay: NCI-60 single-dose screen; assay type: cell-based; settings: Homo sapiens, single dose 10 µM, '-' = no inhibition, read-out: % Growth Inhibition
Procedure: as §1, §2

SNB-75 = assay: NCI-60 single-dose screen; assay type: cell-based; settings: Homo sapiens, single dose 10 µM, '-' = no inhibition, read-out: % Growth Inhibition
Procedure: as §1, §2

UO-31 = assay: NCI-60 single-dose screen; assay type: cell-based; settings: Homo sapiens, single dose 10 µM, '-' = no inhibition, read-out: % Growth Inhibition
Procedure: as §1, §2

MDA-MB231/ATCC = assay: NCI-60 single-dose screen; assay type: cell-based; settings: Homo sapiens, MDA-MB-231, single dose 10 µM, '-' = no inhibition, read-out: % Growth Inhibition
Procedure: as §1, §2

Work on COc1ccc(-c2cc(-c3ccc(Cl)cc3)nc(SC)n2)cc1 [Compound 9, 4-(4-Chlorophenyl)-6-(4-methoxyphenyl)-2-(methylthio)pyrimidine] yielded an inhibition at 10 µM (EKVX) of 19.4%, an inhibition at 10 µM (RPMI-8226) of 10.8% and an inhibition at 10 µM (ACHN 1) of 4.08%. For the same compound, the inhibition at 10 µM (K-562) was 18.6%, the inhibition at 10 µM (OVCAR-8) was 11% and the inhibition at 10 µM (OVCAR-3) was < 0%. For the same compound, the inhibition at 10 µM (MOLT-4) was 11.7%, the inhibition at 10 µM (HCC-2998) was < 0% and the inhibition at 10 µM (HT29) was 15.6%. The inhibition at 10 µM (SK-MEL-2) was < 0%, the inhibition at 10 µM (BT-549) was < 0% and the inhibition at 10 µM (SF-539) was 6.28%. The inhibition at 10 µM (UACC-62) was 26%, the inhibition at 10 µM (IGROV1) was 3.15% and the inhibition at 10 µM (SR) was 12.7%. For the same compound, the inhibition at 10 µM (KM12) was 5.71%, the inhibition at 10 µM (MDA-MB-435) was 1.45% and the inhibition at 10 µM (NCI-H460) was 4.25%. For the same compound, the inhibition at 10 µM (NCI-H23) was 9.87%, the inhibition at 10 µM (SF-268) was 4.44% and the inhibition at 10 µM (NCI-H522) was 16%. For the same compound, the inhibition at 10 µM (RXF 393) was 7.91%, the inhibition at 10 µM (A498) was < 0% and the inhibition at 10 µM (NCI/ADR-RES) was 9.84%. It also gave an inhibition at 10 µM (MDA-MB-468) of 26.2%, an inhibition at 10 µM (NCI-H322M) of 14.3% and an inhibition at 10 µM (UACC-257) of 5.09%. The inhibition at 10 µM (DU-145) was 5.68%, the inhibition at 10 µM (PC-3) was 6.22% and the inhibition at 10 µM (TK-10) was < 0%. It also gave an inhibition at 10 µM (SN12C) of 11.2%, an inhibition at 10 µM (LOX IMVI) of 12.2% and an inhibition at 10 µM (M14) of 3.51%. For the same compound, the inhibition at 10 µM (HL-60(TB)) was 7.42%, the inhibition at 10 µM (SW-620) was 6.31% and the inhibition at 10 µM (SF-295) was 7.84%. For the same compound, the inhibition at 10 µM (SNB-19) was 4.85%, the inhibition at 10 µM (HCT-15) was 15% and the inhibition at 10 µM (CAKI-1) was 28.8%. For the same compound, the inhibition at 10 µM (SK-OV-3) was < 0%, the inhibition at 10 µM (CCRF-CEM) was 0.1% and the inhibition at 10 µM (MCF7) was 28.7%. The inhibition at 10 µM (SK-MEL-28) was < 0%, the inhibition at 10 µM (MALME-3M) was 11.3% and the inhibition at 10 µM (SNB-75) was < 0%. For the same compound, the inhibition at 10 µM (UO-31) was 18.1%, the inhibition at 10 µM (MDA-MB231/ATCC) was 20.4% and the melting point was 220 to 221 °C.
